Substitutions are numbered along the chain they refer to.

This note sets out measurements from publication PMC2901518 (British Journal of Pharmacology, 2010).

For assay [1], the target named is T1, Y1 receptor TSA (T361A, S362A) (Rattus norvegicus, UniProt P21555, S362A/T361A).
T1 sequence (P21555 2-382 T361A/S362A): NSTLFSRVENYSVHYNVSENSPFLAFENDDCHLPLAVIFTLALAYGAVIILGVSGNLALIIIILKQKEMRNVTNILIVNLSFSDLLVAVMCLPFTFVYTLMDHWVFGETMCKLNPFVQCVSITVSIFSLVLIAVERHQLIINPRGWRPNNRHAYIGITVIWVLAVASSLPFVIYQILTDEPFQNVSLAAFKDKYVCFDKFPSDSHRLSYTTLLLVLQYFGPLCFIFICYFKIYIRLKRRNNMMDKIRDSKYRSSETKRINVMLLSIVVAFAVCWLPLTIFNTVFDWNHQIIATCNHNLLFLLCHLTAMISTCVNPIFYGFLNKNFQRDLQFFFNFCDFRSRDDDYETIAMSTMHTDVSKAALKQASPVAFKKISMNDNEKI
The assay can be described thus: [125I]PYY competition binding, Y1 TSA/βarr2 membranes.

For the next assay, the target named is T2, Y1 receptor S359A (Rattus norvegicus, UniProt P21555, S359A).
T2 sequence (P21555 2-382 S359A): T1 sequence (P21555 2-382 T361A/S362A) with S358A, A360T, A361S
The assay can be described thus: [125I]PYY competition binding, Y1 S359A/βarr2 membranes.

In another assay the target is T3, Y1 receptor (Rattus norvegicus, UniProt P21555).
T3 sequence (P21555 2-382): T1 sequence (P21555 2-382 T361A/S362A) with A360T, A361S
The assay can be described thus: [125I]PYY competition binding, Y1/βarr2 membranes. Particulars: inhibition of [125I]PYY specific binding.

In assay [2] the target is T4, Y1 receptor T356A, S359A, TSA (Rattus norvegicus, UniProt P21555, S359A/S362A/T356A/T361A).
T4 sequence (P21555 2-382 T356A/S359A/T361A/S362A): T1 sequence (P21555 2-382 T361A/S362A) with T355A, S358A
Briefly: [125I]PYY competition binding, Y1 T356A, S359A, TSA/βarr2 membranes.

The next assay addresses T5, Y1 receptor 6A (Rattus norvegicus, UniProt P21555, S352A/S359A/S362A/T353A/T356A/T361A).
T5 sequence (P21555 1-382 S352A/T353A/T356A/S359A/T361A/S362A): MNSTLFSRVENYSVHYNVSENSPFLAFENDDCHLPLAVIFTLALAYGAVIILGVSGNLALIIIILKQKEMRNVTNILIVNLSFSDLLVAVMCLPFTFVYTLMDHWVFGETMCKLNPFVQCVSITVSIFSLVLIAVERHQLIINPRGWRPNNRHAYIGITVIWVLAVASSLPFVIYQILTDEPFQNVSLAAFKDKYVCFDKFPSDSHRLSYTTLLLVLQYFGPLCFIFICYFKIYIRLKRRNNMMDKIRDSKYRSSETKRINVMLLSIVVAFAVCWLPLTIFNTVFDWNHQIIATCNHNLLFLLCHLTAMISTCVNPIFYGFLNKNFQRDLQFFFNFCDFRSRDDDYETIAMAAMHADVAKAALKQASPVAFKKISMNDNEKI
Briefly: [125I]PYY competition binding, Y1 6A/βarr2 membranes.

Another assay has as its target T6, Y2 receptor (Homo sapiens, UniProt P49146).
T6 sequence (P49146 1-381): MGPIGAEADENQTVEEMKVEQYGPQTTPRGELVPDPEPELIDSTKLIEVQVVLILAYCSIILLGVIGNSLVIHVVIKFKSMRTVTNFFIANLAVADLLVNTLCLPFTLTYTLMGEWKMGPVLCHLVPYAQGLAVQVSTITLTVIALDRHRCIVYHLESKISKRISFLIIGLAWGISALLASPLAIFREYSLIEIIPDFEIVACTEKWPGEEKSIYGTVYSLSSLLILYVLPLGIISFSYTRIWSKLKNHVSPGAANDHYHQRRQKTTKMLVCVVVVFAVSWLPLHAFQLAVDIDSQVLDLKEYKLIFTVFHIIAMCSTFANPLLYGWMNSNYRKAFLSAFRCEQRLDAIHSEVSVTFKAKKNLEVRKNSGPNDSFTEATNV
The class given is binding.

Setting [3] is: inhibition of [125I]PYY specific binding.

As to `Nc1nc2c(ncn2[C@@H]2O[C@H](COP(=O)(O)OP(=O)(O)OP(O)(O)=S)[C@@H](O)[C@H]2O)c(=O)[nH]1` [GTPγS, guanosine-5′-O-(3-thio)triphosphate], the “GTPγS 1 µM inhibition (%), Y1 TSA” value in assay [1] (1 µM GTPγS) is recorded as 51.4 ± 4.9%. The “GTPγS pIC50, Y1 TSA” value in assay [1] (setting [3]) is recorded as 9.40 ± 0.10. Further, on Y1 receptor S359A (1 µM GTPγS), the “GTPγS 1 µM inhibition (%), Y1 S359A” value came out at 54.7 ± 3.5%. Besides, on Y1 receptor S359A (setting [3]), the “GTPγS pIC50, Y1 S359A” value is listed as 9.18 ± 0.08. The “GTPγS 1 µM inhibition (%), Y1” value at Y1 receptor (1 µM GTPγS) was 58.6 ± 4.1%. Moreover, the “GTPγS pIC50, Y1” value at Y1 receptor (30 µg·mL−1 saponin) was 9.05 ± 0.21. Moreover, the “GTPγS 1 µM inhibition (%), Y1 T356A, S359A, TSA” value in assay [2] (1 µM GTPγS) was 53.0 ± 7.4%. Also, the “GTPγS pIC50, Y1 T356A, S359A, TSA” value in assay [2] (setting [3]) worked out at 9.21 ± 0.20. At Y1 receptor 6A (1 µM GTPγS), the “GTPγS 1 µM inhibition (%), Y1 6A” value worked out at 63.2 ± 1.2%. In addition, the “GTPγS pIC50, Y1 6A” value at Y1 receptor 6A (setting [3]) was found to be 9.04 ± 0.02. Besides, on Y2 receptor (1 µM GTPγS), the “GTPγS 1 µM inhibition (%), Y2” value amounted to 73.8 ± 3.5%. Also, on Y2 receptor (setting [3]), the “GTPγS pIC50, Y2” value was found to be 9.19 ± 0.11.
